Reference: patent US4931447A, “Cycloalkylamides of (8β)-1-alkyl-6-(substituted) ergolines” (Eli Lilly and Company, priority 1989, dated 1990)

Key:
5HT2 Receptors = biological target: T1, 5HT2 Receptors (Rattus norvegicus, UniProt P14842); assay: Apparent antagonist dissociation constant (KB) at 5HT2 receptors, serotonin-induced contraction of isolated rat external jugular vein; format: cell-based, rat (male Wistar)
T1 construct: from tissue; host or cells: rat external jugular vein (isolated, male Wistar)
T1 sequence (P14842 whole entry): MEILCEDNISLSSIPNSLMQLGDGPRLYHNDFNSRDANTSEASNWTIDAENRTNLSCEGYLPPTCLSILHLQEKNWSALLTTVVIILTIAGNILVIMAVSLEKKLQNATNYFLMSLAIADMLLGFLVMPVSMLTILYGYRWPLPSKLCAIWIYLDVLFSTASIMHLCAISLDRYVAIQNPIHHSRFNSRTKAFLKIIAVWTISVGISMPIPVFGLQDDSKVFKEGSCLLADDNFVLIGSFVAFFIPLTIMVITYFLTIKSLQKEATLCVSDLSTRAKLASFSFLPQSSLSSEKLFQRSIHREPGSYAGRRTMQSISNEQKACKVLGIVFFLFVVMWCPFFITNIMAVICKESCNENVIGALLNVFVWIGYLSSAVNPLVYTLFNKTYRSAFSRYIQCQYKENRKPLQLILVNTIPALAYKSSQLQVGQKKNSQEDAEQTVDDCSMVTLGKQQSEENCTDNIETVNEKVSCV
From the text: Male Wistar rats (about 150-300 gram weight) were killed and their external jugular veins and thoracic aortas dissected free of connective tissue, cannulated in situ and placed in a modified Krebs' bicarbonate buffer in a suitable tissue bath. Two L-shaped 30-gauge stainless-steel hypodermic needles were inserted in each cannula and the dissected vessels gently pushed onto the needles. One needle was attached with thread to a stationary glass rod and the other to the transducer. [The procedure employed was that described by Hooker, Calkins and Fleisch, Blood Vessels, 14, 1, (1977) for use with circular smooth muscle preparations.]
The modified Krebs' bicarbonate buffer was composed of the following (concentrations in millimoles): sodium chloride, 118.2; potassium chloride, 4.6; calcium chloride dihydrate, 1.6; potassium dihydrogenphosphate, 1.2; magnesium sulfate, 1.2; dextrose, 10.0; sodium bicarbonate, 24.8; and water q.s. to 1000 g. The tissue baths were maintained at 37° C. and were aerated with 95% oxygen: 5% carbon dioxide (v:v). An initial optimum resting force of 1 g and 4 g was applied to the jugular vein and aorta, respectively. Isometric contractions were recorded as changes in grams of force on a Beckman Dynograph with Statham UC-3 transducers and microscale accessory attachment. Tissues were allowed to equilibrate 1 to 2 hours before exposure to drugs. Control responses to serotonin in the jugular vein and to norepinephrine in the aorta were obtained. The vessels were then incubated with appropriate concentrations of the test compound for one hour. Responses to serotonin or to norepinephrine were then repeated in the presence of the test compound. Contraction to serotonin was evaluated in the jugular vein since this tissue produces marked responses to serotonin in the absence of alpha receptors. See Cohen and Wiley, J. Pharm. Exp. Ther., 205, 400 (1978). Alpha receptor antagonist activity was evaluated in the aorta.
Apparent antagonist dissociation constants were determined for each concentration of the test compound according to the following equation: [formula] wherein [B] is the concentration of the antagonist and the dose ratio is the ED50 of the agonist in the presence of the antagonist divided by the control ED50. […] The -log KB values obtained for representative sensitive compounds of this invention and are given below in Table 1. ln the Table, column I provides the Example Number of the compound evaluated in the screen; columns 2-6, the identity of the compound evaluated in the screen when taken with the structure provided; and column 7, the apparent dissociation constant for the test compound.

Male Rats [1] = assay: Copulatory performance of male rats, subcutaneous administration (Tables III, IV); format: in vivo, rat (male Sprague-Dawley); settings: for Postejaculatory Latency / Ejaculatory Latency: 30 min before test; for Copulatory Rate: number of mounts per minute
Description: (§1) Adult male rats of the Sprague-Dawley strain were used in these studies. The sexual behavior evaluations were conducted at 2-week intervals beginning at 6 months of age and ending at 12 months of age. During the initial screening process, the male rats of various levels of sexual performance were selected for compound testing. […] Prior to treatment with a drug solution, each male rat was required to have at least two consecutive vehicle tests with similar sexual performance. Following each compound testing, additional vehicle tests were performed.
(§2) The mating tests were performed during the dark phase of the lighting cycle using red light illumination. Each behavioral test was initiated with the introduction of a receptive female rat into the arena and was terminated either 30 minutes later or immediately following the first postejaculatory mount. The indiees of mating performance that were evaluated for the rats capable of ejaculation included mount latency (the time interval from the introduction of the female rat to the first mount); intromission latency (the time interval from the introduction of the female rat to the first intromission); ejaculatory latency (the time interval from intromission to ejaculation); postejaculatory interval (the time from ejaculation to the next mount); mount frequency (the total number of mounts with or without intromission prior to ejaculation); intromission frequency (the number of mounts with intromission prior to ejaculation); intromission efficiency (the intromission frequency divided by the mount frequency); copulatory rate (the number of mounts per minute); copulatory frequency (the number of mounts prior to ejaculation); and copulatory efficiency (the number of mounts with intromission divided by the total number of mounts).
(§3) Each male rat was given a solution containing either the vehicle alone in water or the compound of Example 1, (8β)-N-cyclohexyl-1-isopropyl-6-methylergoline-8-carboxamide, in the same vehicle. Vehicle was made of 1 mM (millimolar) acetic acid and 1 mM ascorbic acid.
(§4) The results of these studies are set forth below in Tables II-VII. In the Tables "N" is the number of animals used to generate the data, the average of which is provided. The specific description of the test performed is set forth in the heading of the Tables.
Control values were obtained from the same rats 2 weeks earlier following
All injections were made 30 minutes prior to testing

Male Rats [2] = assay: Copulatory performance of male rats, oral administration (Tables V, VI); format: in vivo, rat (male Sprague-Dawley); settings: for Postejaculatory Latency / Ejaculatory Latency: 90 min before test, seconds per Table III; for Copulatory Rate: number of mounts per minute
Description: as §1, §2, §3, §4
All solutions were administered by gavage 90 minutes prior to testing.
Control responses were obtained from the same rats 2 weeks earlier
following vehicle administration by gavage.

## CC(C)n1cc2c3c(cccc31)[C@H]1C[C@@H](C(=O)NC3CCCCC3)CN(C)[C@@H]1C2 [Example 1, (8β)-N-Cyclohexyl-1-isopropyl-6-methylergoline-8-carboxamide]
5HT2 Receptors
  Kb: 0.214 nM
Male Rats [1]; 0.01 mcg/kg s.c., N = 14, control 366.9 ± 15.6
  Postejaculatory Latency: 366.8 ± 19.8 s
Male Rats [1]; 0.01 mcg/kg s.c., N = 14, control 602.6 ± 47.4
  Ejaculatory Latency: 530.4 ± 64.6 s
Male Rats [1]; 0.01 mcg/kg s.c., N = 14, control 0.59 ± 0.05
  Copulatory Efficiency: 0.56 ± 0.03
Male Rats [1]; 0.01 mcg/kg s.c., N = 14, control 20.1 ± 2.4
  Mount Frequency: 21.4 ± 2.0
Male Rats [1]; 0.01 mcg/kg s.c., N = 14, control 2.1 ± 0.2
  Copulatory Rate: 2.4 ± 0.3
Male Rats [1]; 0.10 mcg/kg s.c., N = 15, control 367.1 ± 18.7
  Postejaculatory Latency: 355.9 ± 13.2 s
Male Rats [1]; 0.10 mcg/kg s.c., N = 15, control 747.9 ± 61.8, significant (*)
  Ejaculatory Latency: 532.9 ± 58.0 s
Male Rats [1]; 0.10 mcg/kg s.c., N = 15, control 0.38 ± 0.03, significant (*)
  Copulatory Efficiency: 0.54 ± 0.04
Male Rats [1]; 0.10 mcg/kg s.c., N = 15, control 25.0 ± 2.3
  Mount Frequency: 22.9 ± 2.6
Male Rats [1]; 0.10 mcg/kg s.c., N = 15, control 2.0 ± 0.2, significant (*)
  Copulatory Rate: 2.7 ± 0.3
Male Rats [1]; 1.0 mcg/kg s.c., N = 11, control 371.2 ± 19.8
  Postejaculatory Latency: 357.3 ± 9.5 s
Male Rats [1]; 1.0 mcg/kg s.c., N = 11, control 749.5 ± 59.1, significant (*)
  Ejaculatory Latency: 584.8 ± 89.4 s
Male Rats [1]; 1.00 mcg/kg s.c., N = 11, control 0.53 ± 0.04, significant (*)
  Copulatory Efficiency: 0.67 ± 0.03
Male Rats [1]; 1.00 mcg/kg s.c., N = 11, control 23.1 ± 2.4
  Mount Frequency: 21.4 ± 1.7
Male Rats [1]; 1.00 mcg/kg s.c., N = 11, control 1.9 ± 0.2, significant (*)
  Copulatory Rate: 2.4 ± 0.2
Male Rats [1]; 10.0 mcg/kg s.c., N = 11, control 368.3 ± 23.0
  Postejaculatory Latency: 333.9 ± 10.9 s
Male Rats [1]; 10.0 mcg/kg s.c., N = 11, control 850.4 ± 99.2, significant (*)
  Ejaculatory Latency: 454.1 ± 78.4 s
Male Rats [1]; 10.0 mcg/kg s.c., N = 11, control 0.49 ± 0.05, significant (*)
  Copulatory Efficiency: 0.57 ± 0.04
Male Rats [1]; 10.0 mcg/kg s.c., N = 11, control 23.2 ± 2.1
  Mount Frequency: 18.5 ± 2.4
Male Rats [1]; 10.0 mcg/kg s.c., N = 11, control 1.7 ± 0.2, significant (*)
  Copulatory Rate: 2.6 ± 0.4
Male Rats [1]; 100.0 mcg/kg s.c., N = 16, control 373.3 ± 22.8
  Postejaculatory Latency: 325.6 ± 16.0 s
Male Rats [1]; 100.0 mcg/kg s.c., N = 16, control 731.8 ± 44.5, significant (*)
  Ejaculatory Latency: 463.6 ± 46.6 s
Male Rats [1]; 100.0 mcg/kg s.c., N = 16, control 0.49 ± 0.03, significant (*)
  Copulatory Efficiency: 0.59 ± 0.04
Male Rats [1]; 100.0 mcg/kg s.c., N = 16, control 24.8 ± 2.3
  Mount Frequency: 21.3 ± 1.4
Male Rats [1]; 100.0 mcg/kg s.c., N = 16, control 2.1 ± 0.2, significant (*)
  Copulatory Rate: 2.9 ± 0.3
Male Rats [2]; 0.01 mcg/kg oral gavage, N = 17, control 358.5 ± 23.1
  Postejaculatory Latency: 370.2 ± 23.7
Male Rats [2]; 0.01 mcg/kg oral gavage, N = 17, control 713.6 ± 58.1, significant (*)
  Ejaculatory Latency: 689.2 ± 91.2
Male Rats [2]; 0.01 mcg/kg oral gavage, N = 17, control 0.43 ± 0.04
  Copulatory Efficiency: 0.46 ± 0.05
Male Rats [2]; 0.01 mcg/kg oral gavage, N = 17, control 29.7 ± 2.9, significant (*)
  Mount Frequency: 27.5 ± 4.4
Male Rats [2]; 0.01 mcg/kg oral gavage, N = 17, control 2.5 ± 0.2
  Copulatory Rate: 2.3 ± 0.2
Male Rats [2]; 0.1 mcg/kg oral gavage, N = 14, control 381.9 ± 13.4, significant (*)
  Postejaculatory Latency: 313.4 ± 12.0
Male Rats [2]; 0.1 mcg/kg oral gavage, N = 14, control 735.4 ± 51.9, significant (*)
  Ejaculatory Latency: 486.5 ± 70.8
Male Rats [2]; 0.1 mcg/kg oral gavage, N = 14, control 0.60 ± 0.05
  Copulatory Efficiency: 0.60 ± 0.05
Male Rats [2]; 0.1 mcg/kg oral gavage, N = 14, control 19.4 ± 2.4
  Mount Frequency: 18.7 ± 2.1
Male Rats [2]; 0.1 mcg/kg oral gavage, N = 14, control 1.7 ± 0.2, significant (*)
  Copulatory Rate: 2.5 ± 0.4
Male Rats [2]; 1.0 mcg/kg oral gavage, N = 8, control 384.1 ± 23.5
  Postejaculatory Latency: 322.1 ± 15.3
Male Rats [2]; 1.0 mcg/kg oral gavage, N = 8, control 646.3 ± 51.0
  Ejaculatory Latency: 415.9 ± 62.3
Male Rats [2]; 1.0 mcg/kg oral gavage, N = 8, control 0.59 ± 0.06
  Copulatory Efficiency: 0.58 ± 0.04
Male Rats [2]; 1.0 mcg/kg oral gavage, N = 8, control 21.1 ± 3.9, significant (*)
  Mount Frequency: 16.8 ± 1.8
Male Rats [2]; 1.0 mcg/kg oral gavage, N = 8, control 2.0 ± 0.4
  Copulatory Rate: 2.7 ± 0.4
Male Rats [2]; 10.0 mcg/kg oral gavage, N = 12, control 345.1 ± 20.3, significant (*)
  Postejaculatory Latency: 299.7 ± 15.1
Male Rats [2]; 10.0 mcg/kg oral gavage, N = 12, control 731.0 ± 87.0, significant (*)
  Ejaculatory Latency: 434.2 ± 37.9
Male Rats [2]; 10.0 mcg/kg oral gavage, N = 12, control 0.43 ± 0.03
  Copulatory Efficiency: 0.49 ± 0.04
Male Rats [2]; 10.0 mcg/kg oral gavage, N = 12, control 25.9 ± 1.6
  Mount Frequency: 22.9 ± 1.2
Male Rats [2]; 10.0 mcg/kg oral gavage, N = 12, control 2.2 ± 0.2, significant (*)
  Copulatory Rate: 3.3 ± 0.3
Male Rats [2]; 100.0 mcg/kg oral gavage, N = 8, control 417.9 ± 28.4
  Postejaculatory Latency: 350.6 ± 29.5
Male Rats [2]; 100.0 mcg/kg oral gavage, N = 8, control 804.6 ± 73.5, significant (*)
  Ejaculatory Latency: 366.1 ± 52.2
Male Rats [2]; 100.0 mcg/kg oral gavage, N = 8, control 0.51 ± 0.06, significant (*)
  Copulatory Efficiency: 0.69 ± 0.04
Male Rats [2]; 100.0 mcg/kg oral gavage, N = 8, control 19.4 ± 1.7, significant (*)
  Mount Frequency: 14.4 ± 1.3
Male Rats [2]; 100.0 mcg/kg oral gavage, N = 8, control 1.4 ± 0.1, significant (*)
  Copulatory Rate: 2.6 ± 0.4
